Results taken from US10654882B2, “Nicotinamide mononucleotide derivative and salt thereof, method for producing same, topical skin preparation, cosmetic and food additive” (SHOWA DENKO K.K., priority 2015, dated 2020).
Where two headings read alike, the source gives them in different places.

Test system: three-dimensional cultured human skin model (EPI-606X)
Test: Skin permeability test
Protocol: A three-dimensional cultured human skin model (EPI-606X, Kurabo Industries Ltd., area: 3.8 cm^2) was placed in a 6-well plate containing PBS solution (1 mL) so that the lower portion thereof was submerged. The human skin model was then allowed to stand undisturbed for 30 minutes in an incubator under conditions of 37° C. and a carbon dioxide concentration of 5%. Next, the PBS solution in the lower wells of the skin model was replaced with HBSS(−) solution (Hanks solution, 1 mL) (to be referred to as the “receiver liquid”) and the sample solution (700 μL) obtained above was administered onto the skin model. The skin model was then allowed to stand undisturbed for 24 hours in an incubator under conditions of 37° C. and a carbon dioxide concentration of 5%.
After allowing to stand undisturbed for 24 hours, the sample solution on the skin model was removed using a pipette followed by removing the skin model from the wells and washing with PBS (−) solution. Next, a section of the skin model was cut out and placed in a 2 mL tube. Methanol (1 mL) and stainless steel beads (Tomy Co., Ltd., diameter: 5.5 mm) were added to the tube followed by crushing the section using a Multi Beads Shocker (Yasui Kikai Corp.) under conditions of 10 seconds at 2000 rpm for 10 cycles.
Following crushing, the resulting solution was transferred to a 2 mL Eppendorf tube and centrifuged for 5 minutes at 12000 rpm followed by filtering the supernatant with a filter (pore diameter: 0.22 μm) to obtain a skin model extract.
Next, the amounts of test substance in the skin model extract and receiver liquid were quantified for each test substance under the previously described HPLC Analysis Conditions 1. The total amount of test substance absorbed by the skin model in each well was calculated from the quantified value of test substance in the skin model extract. In addition, the quantified value of test substance in the receiver liquid was used as the amount of test substance that permeated the skin model. The total value A (μg) of the total amount of test substance absorbed by the skin model and the amount of test substance that permeated the skin model was then calculated.
The permeation rate (%) through the skin model for each test substance administered to the skin model was calculated according to the following equation (i). Moreover, the aforementioned skin permeability test was carried out three times for each test substance followed by calculation of each permeation rate (%). […] Furthermore, the value shown in front of the (±) symbol in the column entitled “Permeation Rate (%)” indicates the average value of the three results, while the number after the (±) symbol indicates the range of variation of the three results. Permeation rate (%)=(A/1400(amount of test substance administered to skin model) (μg)))×100 (i)

[1] = 0.2% by weight sample solution in PBS(-), pH 7.4, 700 μL on skin model, 24 hours, 37° C., average ± range of variation of three results
[2] = skin model, 24 hours, compared with non-acylated β-NMN or among the examples

Structure (SMILES) | Permeation rate, comparison in words | Permeation Rate (%) (pH 7.4) | Permeation Rate (%) [1] | Permeation rate, comparison in words [2]
CCCCCCCCCCCCCCCC(=O)O[C@@H]1[C@H](OC(=O)CCCCCCCCCCCCCCC)[C@@H](COP(=O)([O-])[O-])O[C@H]1[n+]1cccc(C(N)=O)c1.[Na+] [Example 11, 2′,3′-dipalmitoyl-β-NMN sodium salt] | high permeation rate in comparison with the non-acylated β-NMN of Comparative Example 2 | 41 ± 2.7% | – | –
NC(=O)c1ccc[n+]([C@@H]2O[C@H](COP(=O)([O-])O)[C@@H](O)[C@H]2O)c1 [Comparative Example 2, β-nicotinamide mononucleotide, reference compound] | – | 15 ± 0.4% | – | –
CCCCCCCCCCCCCCCC(=O)O[C@H]1[C@@H](O)[C@H]([n+]2cccc(C(N)=O)c2)O[C@@H]1COP(=O)([O-])O [Example 1, 3′-palmitoyl-β-nicotinamide mononucleotide] | – | – | 40 ± 4.7% | particularly high
CCCCCC(=O)O[C@H]1[C@@H](O)[C@H]([n+]2cccc(C(N)=O)c2)O[C@@H]1COP(=O)([O-])O [Example 7, 3′-hexanoyl-β-NMN] | – | 29 ± 4.7% | – | –
CCCCCCCCCCCCCCCC(=O)O[C@@H]1[C@H](OC(=O)CCCCCCCCCCCCCCC)[C@@H](COP(=O)([O-])O)O[C@H]1[n+]1cccc(C(N)=O)c1 [Example 2, 2′,3′-dipalmitoyl-β-nicotinamide mononucleotide] | – | – | 41 ± 1.7% | particularly high
CCCCCCCC(=O)OC1C(COP(=O)([O-])O)OC([n+]2cccc(C(N)=O)c2)C1OC(=O)CCCCCCC (stereo not drawn) [Example 6, 2′,3′-dioctanoyl-β-NMN] | – | – | 38 ± 4.7% | –
CCCCCCCC(=O)O[C@H]1[C@@H](O)[C@H]([n+]2cccc(C(N)=O)c2)O[C@@H]1COP(=O)([O-])O [Example 5, 3′-octanoyl-β-NMN] | – | 31 ± 4.7% | – | –
CC(=O)O[C@@H]1[C@H](OC(C)=O)[C@@H](COP(=O)([O-])O)O[C@H]1[n+]1cccc(C(N)=O)c1 [Synthesis Example 1, 2′,3′-diacetyl-β-nicotinamide mononucleotide, reference compound] | – | – | 16 ± 1.7% | equal to that of the non-acylated β-NMN of Comparative Example 2

Second part, led by results:

Permeation rate, comparison in words | Permeation Rate (%) (pH 7.4) | Structure (SMILES) | Permeation Rate (%) [1] | Permeation rate, comparison in words [2]
– | 37 ± 2.7% | CCCCCC(=O)O[C@@H]1[C@H](OC(=O)CCCCC)[C@@H](COP(=O)([O-])O)O[C@H]1[n+]1cccc(C(N)=O)c1 [Example 8, 2′,3′-dihexanoyl-β-NMN] | – | –
particularly high | 35 ± 4.7% | CCCCCCCCCCCC(=O)O[C@H]1[C@@H](O)[C@H]([n+]2cccc(C(N)=O)c2)O[C@@H]1COP(=O)([O-])O [Example 3, 3′-lauroyl-β-NMN] | – | –
particularly high | 40 ± 4.7% | CCCCCCCCCCCC(=O)O[C@@H]1[C@H](OC(=O)CCCCCCCCCCC)[C@@H](COP(=O)([O-])O)O[C@H]1[n+]1cccc(C(N)=O)c1 [Example 4, 2′,3′-dilauroyl-β-NMN] | – | –
